# Target: T1, p53 Y220C (Homo sapiens, UniProt P04637, Y220C)
# T1 construct: The recombinant protein was a truncation mutant containing only amino acids 94-312 of p53; made in house; host or cells: E. coli
# Assay: In vitro DNA binding activity assay (HTRF / TR-FRET): stabilization of p53 Y220C and increase of its DNA binding activity
# Assay type: biochemical
# Conditions: recombinant His-tagged p53 Y220C DNA binding domain (aa 94-312), biotin-labeled consensus DNA, incubated at 27° C. or 29° C. for 60 min
# Method in brief: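 Stabilization of the mutant is inferred from increased binding of His-tagged p53 Y220C to a biotin-labeled consensus DNA, detected by HTRF with europium-streptavidin and APC-anti-His antibody. The concentration giving a 50% rise over compound-free binding is reported as SC150.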
# T1 sequence (P04637 94-312, change not shown): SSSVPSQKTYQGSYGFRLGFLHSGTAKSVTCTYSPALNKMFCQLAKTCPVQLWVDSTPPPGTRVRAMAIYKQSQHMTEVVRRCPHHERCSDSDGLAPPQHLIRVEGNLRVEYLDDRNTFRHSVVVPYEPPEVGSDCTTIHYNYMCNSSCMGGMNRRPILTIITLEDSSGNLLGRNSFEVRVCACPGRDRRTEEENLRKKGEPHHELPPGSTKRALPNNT
row,SC150 (concentration of the compound required to increase the DNA binding activity by 50%),SMILES
1,+ (+ = 0 μM ≤ SC150 < 0.05 μM),"CCOCC(O)CN1CCC(Nc2cccc3c2cc(C#CCNc2ccc(S(C)(=O)=O)cc2OC)n3CC(F)(F)F)CC1 (stereo not shown) [Compound 660A, 1-ethoxy-3-{4-[(2-{3-[(4-methanesulfonyl-2-methoxyphenyl)amino]prop-1-yn-1-yl}-1-(2,2,2-trifluoroethyl)-1H-indol-4-yl)amino]piperidin-1-yl}propan-2-ol]"
2,+ (+ = 0 μM ≤ SC150 < 0.05 μM),"CC(O)CN1CCC(Nc2cccc3c2cc(C#CCNc2ccc(S(C)(=O)=O)cc2OCC#N)n3CC(F)(F)F)CC1 (stereo not shown) [Compound 661A, 2-(2-{[3-(4-{[1-(2-hydroxypropyl)piperidin-4-yl]amino}-1-(2,2,2-trifluoroethyl)-1H-indol-2-yl)prop-2-yn-1-yl]amino}-5-methanesulfonylphenoxy)acetonitrile]"
3,+ (+ = 0 μM ≤ SC150 < 0.05 μM),"CCS(=O)(=O)c1ccc(NCC#Cc2cc3c(NC4CCN(CC(O)COC)CC4)cccc3n2CC(F)(F)F)c(OC)c1 (stereo not shown) [Compound 662A, 1-(4-{[2-(3-{[4-(ethanesulfonyl)-2-methoxyphenyl]amino}prop-1-yn-1-yl)-1-(2,2,2-trifluoroethyl)-1H-indol-4-yl]amino}piperidin-1-yl)-3-methoxypropan-2-ol]"
4,+ (+ = 0 μM ≤ SC150 < 0.05 μM),"CNC(=O)c1ccc(NCC#Cc2cc3c(NC4CCN(CC(O)COC)CC4)cccc3n2CC(F)(F)F)c(OCF)c1 (stereo not shown) [Compound 663A, 3-(fluoromethoxy)-4-{[3-(4-{[1-(2-hydroxy-3-methoxypropyl)piperidin-4-yl]amino}-1-(2,2,2-trifluoroethyl)-1H-indol-2-yl)prop-2-yn-1-yl]amino}-N-methylbenzamide]"
5,+ (+ = 0 μM ≤ SC150 < 0.05 μM),"COCC(O)CN1CCC(Nc2cccc3c2cc(C#CCNc2ccc(S(C)(=O)=O)cc2OCF)n3CC(F)(F)F)CC1 (stereo not shown) [Compound 664A, 1-(4-{[2-(3-{[2-(fluoromethoxy)-4-methanesulfonylphenyl]amino}prop-1-yn-1-yl)-1-(2,2,2-trifluoroethyl)-1H-indol-4-yl]amino}piperidin-1-yl)-3-methoxypropan-2-ol]"
6,+ (+ = 0 μM ≤ SC150 < 0.05 μM),"COCC(O)CN1CCC(Nc2cccc3c2cc(C#CCNc2ccc(C(C)(C)C#N)cc2OC)n3CC(F)(F)F)CC1 (stereo not shown) [Compound 665A, 2-(4-{[3-(4-{[1-(2-hydroxy-3-methoxypropyl)piperidin-4-yl]amino}-1-(2,2,2-trifluoroethyl)-1H-indol-2-yl)prop-2-yn-1-yl]amino}-3-methoxyphenyl)-2-methylpropanenitrile]"
7,+ (+ = 0 μM ≤ SC150 < 0.05 μM),"COC[C@@H](O)CN1CCC(Nc2cccc3c2cc(C#CCNc2ccc(S(C)(=O)=O)cc2OCF)n3CC(F)(F)F)CC1 [Compound 666A, (2S)-1-(4-{[2-(3-{[2-(fluoromethoxy)-4-methanesulfonylphenyl]amino}prop-1-yn-1-yl)-1-(2,2,2-trifluoroethyl)-1H-indol-4-yl]amino}piperidin-1-yl)-3-methoxypropan-2-ol]"
8,+ (+ = 0 μM ≤ SC150 < 0.05 μM),"COC[C@H](O)CN1CCC(Nc2cccc3c2cc(C#CCNc2ccc(S(C)(=O)=O)cc2OCF)n3CC(F)(F)F)CC1 [Compound 667A, (2R)-1-(4-{[2-(3-{[2-(fluoromethoxy)-4-methanesulfonylphenyl]amino}prop-1-yn-1-yl)-1-(2,2,2-trifluoroethyl)-1H-indol-4-yl]amino}piperidin-1-yl)-3-methoxypropan-2-ol]"
9,+ (+ = 0 μM ≤ SC150 < 0.05 μM),"COCC(O)CN1CCC(Nc2cccc3c2cc(C#CCNc2ccc(S(C)(=O)=O)cc2OC(F)F)n3CC(F)(F)F)CC1 (stereo not shown) [Compound 668A, 1-(4-{[2-(3-{[2-(difluoromethoxy)-4-methanesulfonylphenyl]amino}prop-1-yn-1-yl)-1-(2,2,2-trifluoroethyl)-1H-indol-4-yl]amino}piperidin-1-yl)-3-methoxypropan-2-ol]"
10,++++ (++++ = 0.2 μM ≤ SC150 < 1 μM),"COCC(O)CN1CCC(Nc2cccc3c2cc(C#CCNc2cc(S(C)(=O)=O)ccc2OC)n3CC(F)(F)F)CC1 (stereo not shown) [Compound 670A, 1-{4-[(2-{3-[(5-methanesulfonyl-2-methoxyphenyl)amino]prop-1-yn-1-yl}-1-(2,2,2-trifluoroethyl)-1H-indol-4-yl)amino]piperidin-1-yl}-3-methoxypropan-2-ol]"
11,+ (+ = 0 μM ≤ SC150 < 0.05 μM),"COCC(O)CN1CCC(Nc2cccc3c2cc(C#CCNc2ccc(S(C)(=O)=O)cc2)n3CC(F)(F)F)CC1 (stereo not shown) [Compound 672A, 1-{4-[(2-{3-[(4-methanesulfonylphenyl)amino]prop-1-yn-1-yl}-1-(2,2,2-trifluoroethyl)-1H-indol-4-yl)amino]piperidin-1-yl}-3-methoxypropan-2-ol]"
12,+ (+ = 0 μM ≤ SC150 < 0.05 μM),"COc1cc(S(C)(=O)=O)ccc1NCC#Cc1cc2c(NC3CCN(CC(O)COCC(F)(F)F)CC3)cccc2n1CC(F)(F)F (stereo not shown) [Compound 673A, 1-{4-[(2-{3-[(4-methanesulfonyl-2-methoxyphenyl)amino]prop-1-yn-1-yl}-1-(2,2,2-trifluoroethyl)-1H-indol-4-yl)amino]piperidin-1-yl}-3-(2,2,2-trifluoroethoxy)propan-2-ol]"
13,+ (+ = 0 μM ≤ SC150 < 0.05 μM),"COc1cc(S(C)(=O)=O)ccc1NCC#Cc1cc2c(NC3CC[N+]4(CC3)COCC(O)C4)cccc2n1CC(F)(F)F (stereo not shown) [Compound 674A, 4-hydroxy-9-[(2-{3-[(4-methanesulfonyl-2-methoxyphenyl)amino]prop-1-yn-1-yl}-1-(2,2,2-trifluoroethyl)-1H-indol-4-yl)amino]-2-oxa-6λ^5-azaspiro[5.5]undecan-6-ylium]"
14,+ (+ = 0 μM ≤ SC150 < 0.05 μM),"COCCCN1CCC(Nc2cccc3c2cc(C#CCNc2ccc(S(C)(=O)=O)cc2OC)n3CC(F)(F)F)CC1 [Compound 675A, 2-{3-[(4-methanesulfonyl-2-methoxyphenyl)amino]prop-1-yn-1-yl}-N-[1-(3-methoxypropyl)piperidin-4-yl]-1-(2,2,2-trifluoroethyl)-1H-indol-4-amine]"
15,+++ (+++ = 0.1 μM ≤ SC150 < 0.2 μM),"COCC(O)CN1CCC(Nc2cccc3c2c(C)c(C#CCNc2ccc(S(C)(=O)=O)cc2OC)n3CC(F)(F)F)CC1 (stereo not shown) [Compound 676A, 1-{4-[(2-{3-[(4-methanesulfonyl-2-methoxyphenyl)amino]prop-1-yn-1-yl}-3-methyl-1-(2,2,2-trifluoroethyl)-1H-indol-4-yl)amino]piperidin-1-yl}-3-methoxypropan-2-ol]"

row,SMILES,SC150 (concentration of the compound required to increase the DNA binding activity by 50%)
1,"COc1cc(S(C)(=O)=O)ccc1NCC#Cc1cc2c(NC3CCN(CC(O)COCC(O)CO)CC3)cccc2n1CC(F)(F)F (stereo not shown) [Compound 669A, 3-(2-hydroxy-3-{4-[(2-{3-[(4-methanesulfonyl-2-methoxyphenyl)amino]prop-1-yn-1-yl}-1-(2,2,2-trifluoroethyl)-1H-indol-4-yl)amino]piperidin-1-yl}propoxy)propane-1,2-diol]",+ (+ = 0 μM ≤ SC150 < 0.05 μM)

# From patent publication US12428406B2 (PMV Pharmaceuticals, Inc., priority 2019, dated 2025)
